Assay results: paper PMC3131587, “Sulfotyrosine Recognition as Marker for Druggable Sites in the Extracellular Space” (International Journal of Molecular Sciences, 2011)

How the values were obtained:
CX3CL1 = target: T1, CX3CL1 (Homo sapiens, UniProt P78423); assay: 2D 1H-15N HSQC NMR titration; type: binding; conditions: unbuffered pH 3.6, 25 °C; 250 μM protein; 0-100 mM ligand
T1 sequence (P78423 25-100): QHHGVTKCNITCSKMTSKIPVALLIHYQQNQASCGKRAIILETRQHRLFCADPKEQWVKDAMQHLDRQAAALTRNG

CXCL12 = target: T2, CXCL12 (Homo sapiens, UniProt P48061); assay: 2D 1H-15N HSQC NMR titration; type: binding; conditions: 25 mM d-MES pH 6.8, 37 °C; 250 μM protein; 0-100 mM ligand; shifts at the sTyr21 and sTyr12 sites
T2 construct: [U-15N] recombinant mature chemokine, signal peptide removed; predominantly monomer under assay conditions

CCL5 = target: T3, CCL5 (Homo sapiens, UniProt P13501); assay: 2D 1H-15N HSQC NMR titration; type: binding; conditions: 50 mM NaPO4 pH 3.2, 25 °C; 125 μM protein (dimeric); 0-100 mM ligand
T3 construct: [U-15N] recombinant mature chemokine, signal peptide removed; dimeric in the assay
T3 sequence (P13501 24-91): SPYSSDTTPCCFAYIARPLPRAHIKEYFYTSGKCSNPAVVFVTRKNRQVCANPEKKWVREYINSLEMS

CCL5 (Homo sapiens) = CCL5 (Homo sapiens) (UniProt P13501); conditions: cited from earlier work

| Compound | chemical shift perturbation (CX3CL1) | chemical shift perturbation (CXCL12) | chemical shift perturbation (CCL5) | Kd (CCL5 (Homo sapiens)) [µM] |
| --- | --- | --- | --- | --- |
| N[C@@H](Cc1ccc(OS(=O)(=O)O)cc1)C(=O)O [sulfotyrosine] | Sulfotyrosine titration produced significant perturbations in CX3CL1 residues | HSQC spectral overlays (Figure 4A) demonstrate significant chemical shift perturbations in the chemokine | Residues His23, Lys45, and Arg47 identified in our titration |  |
| CCL5 (from UniProt P13501) |  |  |  | 35 |
